Measured values taken from patent US8512757B2, “Micelles for drug delivery” (Agency for Science, Techology and Research, priority 2006, dated 2013).

Columns and labels:
4T1 cells = test: Cellular distribution and uptake of DOX by confocal microscopy; assay type: cell-based, mouse; settings: DOX 10 mg/L, 4 hours
Description: Free DOX (10 mg/L) and DOX-loaded micelles (DOX content: 10 mg/L) in RPMI 1640 medium (without folate) were incubated with 4T1 cells for 4 hours before examination. The cells on the cover glass were thoroughly washed three times with PBS and visualized by CLSM (Olympus FV300, Japan). DOX was excited at 532 nm with emission at 595 nm. The laser power was 10%. All the observations were conducted using the same resolution.

[1] = tested on: 4T1 mouse breast cancer cells; test: Cytotoxicity test (MTT); assay type: cell-based; settings: 4T1 cells, 48 hours, 37° C.
Description: 4T1 mouse breast cancer cells were cultured in RPMI 1640 (without folate) supplemented with 10% FBS, 5% penicillin, 2 mM L-glutamine (Sigma), and incubated at 37° C., 5% CO2. The cells were seeded onto 96-well plates at 10,000 cells per well, and incubated for one day. […] The media in the wells were replaced with 100 μL of the pre-prepared samples. The plates were then returned to the incubator and maintained in 5% CO2, at 37° C. for 48 hours. Fresh growth media and 10 μL aliquots of MTT solution were used to replace the mixture in each well after 48 hours. The plates were then returned to the incubator and maintained in 5% CO2, at 37° C., for a further 3 hours. The growth medium and excess MTT in each well were then removed. DMSO (150 μL) was then added to each well to dissolve the internalised purple formazan crystals. An aliquot of 100 μL was taken from each well and transferred to a fresh 96-well plate. Each sample was tested in eight replicates per plate. Three plates were used, making a total of 24 replicates per sample. The plates were then assayed at 550 nm and 690 nm. The absorbance readings of the formazan crystals were taken to be that at 550 nm subtracted by that at 690 nm. The results were expressed as a percentage of the absorbance of the blank control.

[2] = Biodistribution in mice bearing subcutaneous 4T1 breast tumours; assay type: in vivo; settings: 5 mg/kg DOX
Description: Female balb/c (body weight: 19-21 g) were subcutaneously implanted with 4T1 cells (10^7 cells per animal). Tumours were allowed to grow for 2 weeks. Free DOX and DOX-loaded micelles were administrated to the animals by tail vein injection at an equivalent DOX dose of 5 mg/kg. At 10 minutes, 30, minutes, 2 hours and 4 hours, blood samples were taken, and the animals were sacrificed. The liver, lung, heart, spleen, kidney and tumour were removed, and kept at −80° C. for future analysis. The organs were weighted and homogenized. DOX distributed in different organs was extracted using chloroform and isopropanol, and analyzed as described by H. S. Yoo, T. G. Park, J. Control. Rel. 2004, 100, 247. Homogenized tissue was added into an acidic hydrolysis buffer containing 2.0 M HCl solution at 80° C. for 10 minutes. The supernatant was collected, and 0.9 mL of the mixture of chloroform and isopropanol (3:1 in volume) was then added. After vortex-mixing, the organic layer was collected by centrifugation at 16,000 rpm for 15 minutes at room temperature. The solution was dried, and re-dissolved in a mobile phase and analyzed by high performance liquid chromatography (HPLC). The recovery rate was 70%, and corrected by an internal standard. The HPLC system consisted of a Waters 2690 separation module and Waters 2475 multi λ fluorescence detector. […] The DOX peak was detected at an excitation wavelength of 480 nm and an emission wavelength of 580 nm.

[3] = tail vein injection, 4T1 tumour

t1/2 in the blood ([2]; tail vein injection): about 30 minutes
maximum DOX level in tumour tissue [2, 3]: 2.9 µg/g
time at which maximum DOX level in tumour was reached [2, 3]: 30 min
DOX level in tumour tissue at 240 minutes ([2]; tail vein injection, 240 minutes): 1.0 µg/g
Structure (SMILES): COc1cccc2c1C(=O)c1c(O)c3c(c(O)c1C2=O)C[C@@](O)(C(=O)CO)C[C@@H]3O[C@H]1C[C@H](N)[C@H](O)[C@H](C)O1.Cl [free DOX, Doxorubicin hydrochloride]
cellular distribution of DOX (4T1 cells): only accumulated in the nucleus
IC50 value of DOX [1]: 3.0 µg/mL
organ distribution of DOX ([2]; spleen, kidney, heart, liver and lung): accumulating uniformly in the heart, lung and liver
